Columns and labels:
Type in all cases: cell-based, human
X chromosome MicroRNA = test: Genome-wide qPCR miRNA expression profiling of 5-azaC treated CD4+ T cells; conditions: 72 hrs; for LET-7f-2 Fold change (5AzaC/No 5Aza): table line 4
Method: (§1) For in vitro demethylation assay, isolated CD4+ cells were cultured with 5 μM 5-AzaC for 72 hours. The cells were then treated (restimulated) or not with 5 ng/ml PMA and 500 ng/ml ionomycin or not for an additional 6 hr, and CD4+ cells were recovered and washed 2 times with PBS. Total RNA including miRNAs was isolated using miRNeasy kit (Qiagen) for miRNA and mRNA expression analysis. Genomic DNA was isolated using Qiagen DNeasy Blood & Tissue Kit. (Hewagama, 2009; Lu, 2007; Quddus, 1993; herein incorporated by reference in their entireties).
Genome-wide qPCR miRNA expression profiling was performed using (System Biosciences (SBI), Cat# RA660A-1) profiler. Briefly, 800 ng totals RNA containing miRNA was converted to complementary DNA with the QuantiMir kit, according to the manufacturer protocol. Real time PCR in 384 well format using miRNA-specific primers was performed using ABI 7900 real-time PCR system at University of Michigan microarray or sequencing core facilities. Resulting data was analyzed by using Human miRNome profiler software provided by SBI.
To identify methylation sensitive […], miRNA expression profiles were compared between 5-AzaC treated CD4+ cells and non-treated controls from healthy men and women. Differentially expressed miRNAs were identified. Then the X chromosome encoded miRNA's increased by 5-azaC in women, compared to men were identified.
Experiments were conducted during the development of embodiments of the present invention to identify X-linked miRNA's increasing more in experimentally demethylated T cells from women than men and also overexpressed in women relative to men with active lupus. The human X chromosome encodes 128 miRNA while the Y chromosome encodes only 15 (Ensembl release 65—December 2011 © WTSI/EBI WTSI/EBI). PBMC from the peripheral blood of healthy men and healthy women ages 23-35 were stimulated with PHA and treated with 5-azaC as before. 72 hrs later CD4+ T cells were purified and miRNA's surveyed using PCR arrays detecting 80 X chromosome and 824 autosomal miRNAs but no Y miRNA's.

OGT [1] = test: OGT mRNA by RT-PCR in 5-azaC treated CD4+ T cells; conditions: 72 hours, restimulated with PMA and ionomycin, more in women than in men
Method: as §1
(§2) Up to 1000 ng total RNA from CD4+ T cells was transcribed into cDNA using Transcriptor First Strand cDNA synthesis kit (Roche) according to the manufacture's instruction. The cDNA was then subjected to real-time PCR using a Rotor-Gene 3000 thermocycler (Corbett). Roche (Basle) FastStart universal SYBR green master (Roche) mix containing 1 μl template cDNA and 0.5 μM forward and reverse primers in a total volume of 20 μl was annealed at 56° C. for a total of 40 cycles. The fold change of expression was calculated using ACTB and 18sRNA as internal reference genes.
(§3) The sex-specific differences in gene expression were confirmed in experimentally demethylated CD4+ T cells from an additional 9 pairs of healthy men and women. […] CD4+ T cells were then purified using magnetic beads, RNA isolated, and OGT and CXCR3 mRNA levels quantitated by RT-PCR. […]

CXCR3 [2] = test: CXCR3 mRNA by RT-PCR in 5-azaC treated CD4+ T cells; conditions: 72 hours, restimulated with PMA and ionomycin, more in women than in men
Method: as §1, §2, §3

OGT [3] = test: OGT protein by immunoblotting in 5-azaC treated CD4+ T cells; conditions: CD4+ T cells from women but not men, 72 h
Method: (§4) CD4 ? T cell CXCR3 levels were measured by flow cytometry using antibodies from Santa Cruz Biotechnology. OGT was measured by solubilizing bead-purified CD4 ? T cells, fractionating the lysates by electrophoresis, transferring the proteins to nitrocellulose membranes, then probing with anti-OGT antibodies (Abcam). CBL protein levels were measured by immunoblotting with anti-CBL antibody (BD Biosciences) and approaches similar to OGT. Protein bands were visualized using an ECL chemiluminescence detection system, then scanned and quantified with ImageQuant 5.2 software. Values were normalized to b-actin and levels expressed relative to non-stimulated CD4 ? T cells. (Basu, 2009; Lu, 2007, Gorelik, 2012; herein incorporated by reference in their entireties).
PBMC from N healthy men and women were stimulated with PHA, treated with 5-azaC, and 72 hours later restimulated with PMA and ionomycin as for an additional 6 hours as before. CD4+ T cells were isolated and OGT levels compared by immunoblotting.

CXCR3 [4] = test: CXCR3 protein by immunoblotting and flow cytometry on 5-azaC treated CD4+ T cells; conditions: for CXCR3 MFI: mean±SEM
Method: as §4
CXCR3 protein levels were similarly compared on 5-azaC treated CD4+ T cells with and without restimulation using immunoblotting and flow cytometry. In contrast to OGT, using untreated and 5-azaC treated CD4+ T cells from male-female pairs, no increase in CXCR3 protein was observed (CXCR3MFI: female 320+91, male 316+108, mean±SEM) despite the increase in CXCR3 mRNA in the women.

OGT regulatory elements = test: Methylcytosine affinity purification (MeCAP) of OGT regulatory region in CD4+ T cells; conditions: CD4+ T cells from women but not men
Method: (§5) Genomic DNA from isolated CD4+ T cells (˜3×10^6), was extracted using Qiagen DNeasy Blood & Tissue Kit. 3-5 μg isolated DNA was sonicated to average of ˜500 bp with a Covaris DNA shearing system at UM sequencing core. Fragments were size-evaluated using an Agilent 2100 Bioanalyzer. Approximately 400 ng sonicated DNA was subjected to MeCAP experiments using Active Motif METHYLCOLLECTOR Ultra Kit according to the manufacturer's instructions. DNA fragments from the methylation-enriched fraction were purified using QIAquick PCR Purification Kit (Qiagen). MeCAP enriched and reference input samples were quantitated using quantitative real time PCR(RT-qPCR) with primers designed for specific regions flanking the putative transcription start site of the gene promoters. Differentially methylated regions between patient and normal healthy controls were identified by comparing % enrichment (relative to input) of the 500 bp window of methylated fragments.
(§6) The overexpression of OGT and CXCR3 in 5-azaC treated CD4+ T cells from women relative to men is consistent with demethylation of regulatory regions on their silenced X chromosome. […]

[5] = system: CXCR3 regulatory elements; test: Methylcytosine affinity purification (MeCAP) of CXCR3 regulatory region in CD4+ T cells; conditions: CD4+ T cells from women
Method: as §5, §6

[6] = system: miR-98/Let 7-f2 gene cluster; test: Methylation of regulatory regions 5' to the miR-98/Let 7-f2 gene cluster in CD4+ T cells; conditions: T cells from women but not men
Method: as §5
Methylation of potential regulatory regions 5′ to the miR-98/Let 7-f2 gene cluster was compared in experimentally demethylated CD4 ? T cells from women relative to men, and in CD4 ? T cells from women with active lupus.

Structure (SMILES): Nc1ncn([C@@H]2O[C@H](CO)[C@@H](O)[C@H]2O)c(=O)n1 [5-azaC]
- MIR-98 Fold change (5AzaC/No 5Aza) (X chromosome MicroRNA; Female CD4+ T cells): 1.7 ± 0.2
- MIR-106a Fold change (5AzaC/No 5Aza) (X chromosome MicroRNA; Female CD4+ T cells): 5.2 ± 1.5
- MIR-188(3p) Fold change (5AzaC/No 5Aza) (X chromosome MicroRNA; Female CD4+ T cells): 12.7 ± 3.0
- MIR-421 Fold change (5AzaC/No 5Aza) (X chromosome MicroRNA; Female CD4+ T cells): 17.4 ± 5.0
- MIR-424 Fold change (5AzaC/No 5Aza) (X chromosome MicroRNA; Female CD4+ T cells): 2.2 ± 0.5
- MIR-450a Fold change (5AzaC/No 5Aza) (X chromosome MicroRNA; Female CD4+ T cells): 2.4 ± 0.7
- MIR-450b Fold change (5AzaC/No 5Aza) (X chromosome MicroRNA; Female CD4+ T cells): 14.3 ± 4.4
- MIR-503 Fold change (5AzaC/No 5Aza) (X chromosome MicroRNA; Female CD4+ T cells): 14.3 ± 4.4
- MIR-508(3p) Fold change (5AzaC/No 5Aza) (X chromosome MicroRNA; Female CD4+ T cells): 4.2 ± 1.1
- LET-7f-2 Fold change (5AzaC/No 5Aza) (X chromosome MicroRNA; Female CD4+ T cells): 3.8 ± 1.2
- MIR-98 Fold change (5AzaC/No 5Aza) (X chromosome MicroRNA; Male CD4+ T cells): 1.4 ± 0.2
- MIR-106a Fold change (5AzaC/No 5Aza) (X chromosome MicroRNA; Male CD4+ T cells): 1.1 ± 0.4
- MIR-188(3p) Fold change (5AzaC/No 5Aza) (X chromosome MicroRNA; Male CD4+ T cells): 4.1 ± 2.1
- MIR-421 Fold change (5AzaC/No 5Aza) (X chromosome MicroRNA; Male CD4+ T cells): 7.8 ± 3.7
- MIR-424 Fold change (5AzaC/No 5Aza) (X chromosome MicroRNA; Male CD4+ T cells): 1.1 ± 0.3
- MIR-450a Fold change (5AzaC/No 5Aza) (X chromosome MicroRNA; Male CD4+ T cells): 1.1 ± 0.8
- MIR-450b Fold change (5AzaC/No 5Aza) (X chromosome MicroRNA; Male CD4+ T cells): 3.8 ± 1.8
- MIR-503 Fold change (5AzaC/No 5Aza) (X chromosome MicroRNA; Male CD4+ T cells): 3.8 ± 1.8
- MIR-508(3p) Fold change (5AzaC/No 5Aza) (X chromosome MicroRNA; Male CD4+ T cells): 1.1 ± 1.3
- LET-7f-2 Fold change (5AzaC/No 5Aza) (X chromosome MicroRNA; Male CD4+ T cells): 0.5 ± 0.2
- OGT transcripts (OGT [1]): increases
- CXCR3 transcripts (CXCR3 [2]): increases
- OGT protein (OGT [3]): increases
- CXCR3 MFI (CXCR3 [4]; female CD4+ T cells): 320+91
- CXCR3 MFI (CXCR3 [4]; male CD4+ T cells): 316+108
- CXCR3 protein (CXCR3 [4]; untreated and 5-azaC treated CD4+ T cells from male-female pairs): no increase
- methylation of region −412 to −88 5′ to OGT transcription start site (OGT regulatory elements): significant demethylation
- methylation of region −1567 to −1067 5′ to the CXCR3 transcription start site [5]: significant decrease
- methylation of regulatory regions 5′ to the miR-98/Let 7-f2 gene cluster [6]: significantly demethylates
